According to publication PMC9865890, “N-Derivatives of (Z)-Methyl 3-(4-Oxo-2-thioxothiazolidin-5-ylidene)methyl)-1H-indole-2-carboxylates as Antimicrobial Agents—In Silico and In Vitro Evaluation” (Pharmaceuticals, 2023):
Where two headings read alike, the source gives them in different places.

Legend:
in vitro = assay type: cell-based; conditions: human
Description: To evaluate cytotoxicity, compounds 1, 2, 8, and 11 were chosen to be tested in the human normal fetal lung fibroblast MRC-5 cell line within the following range of three concentrations for each substance: 1 × 10^−7 M (0.1 μM), 1 × 10^−6 Μ (1 μM), and 1 × 10^−5 M (10 μΜ). […] More specifically, under this exposure to compound 11, the cellular viability was measured to the level of 91.0%.
The normal human fetal lung fibroblast MRC-5 cell line was maintained and used in our laboratory (Dr. I.s.Vizirianakis, Laboratory of Pharmacology, School of Pharmacy, Aristotle University of Thessaloniki, Greece) (passage 15 < 40), as previously published. Cells were grown in culture under the following conditions: 37 °C, humidified atmosphere containing 5% v/v CO2, in DMEM (Dulbecco’s modified Eagle Medium) enriched with 10% FBS and 1% PS. The compounds tested were dissolved in DMSO and stored at 4 °C. […] After the incubation, the OD for each well was determined at 450 nm in a multifunction microplate reader. […] Statistical t-test and one-way analysis of variance (ANOVA) were performed via the use of the SPSS program and the significance level was determined at p < 0.05.

[1] = tested on: Bacillus cereus (clinical isolate); test: Antibacterial microdilution (MIC/MBC); assay type: cell-based; conditions: B.c. (B. cereus)
Method in brief: (§1)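 MIC and MBC values came from a modified broth microdilution method, with ampicillin and streptomycin run alongside as reference drugs.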

M. flavus = test: Antibacterial microdilution (MIC/MBC); assay type: cell-based; conditions: Micrococcus flavus; M.f. (M. flavus)
Method in brief: as §1

[2] = tested on: Listeria monocytogenes (NCTC 7973); test: Antibacterial microdilution (MIC/MBC); assay type: cell-based; conditions: Listeria monocytogenes, NCTC7973, L.m. (L. monocytogenes)
Method in brief: as §1

[3] = tested on: Salmonella typhimurium (ATCC 13311); test: Antibacterial microdilution (MIC/MBC); assay type: cell-based; conditions: S.t. (S. typhimurium)
Method in brief: as §1

[4] = tested on: Enterobacter cloacae (clinical isolate); test: Antibacterial microdilution (MIC/MBC); assay type: cell-based; conditions: En.cl (En. cloacae)
Method in brief: as §1

[5] = tested on: Escherichia coli (ATCC 35210); test: Antibacterial microdilution (MIC/MBC); assay type: cell-based; conditions: E. coli
Method in brief: as §1

P. aeruginosa = test: Antibacterial microdilution (MIC/MBC); assay type: cell-based; conditions: P.a. (P. aeruginosa)
Method in brief: as §1

[6] = tested on: Staphylococcus aureus (ATCC 6538); test: Antibacterial microdilution (MIC/MBC); assay type: cell-based; conditions: Staphylococcus aureus, ATCC6538, S.a. (S. aureus)
Method in brief: as §1

[7] = tested on: Penicillium verrucosum var. cyclopium (food isolate); test: Antifungal bioassay (MIC/MFC); assay type: cell-based
[8] = tested on: Trichoderma viride (IAM 5061); test: Antifungal bioassay (MIC/MFC); assay type: cell-based; conditions: T.v. (T. viride)
Method in brief: (§2)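 Duplicate runs per organism.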

A. ochraceus = test: Antifungal bioassay (MIC/MFC); assay type: cell-based; conditions: A.o. (A. ochraceus)
Method in brief: as §2

P. ochrochloron = test: Antifungal bioassay (MIC/MFC); assay type: cell-based; conditions: Penicillium ochrochloron
Method in brief: as §2

[9] = tested on: Penicillium funiculosum (ATCC 36839); test: Antifungal bioassay (MIC/MFC); assay type: cell-based; conditions: Talaromyces funiculosus, ATCC36839; P.f. (P. funiculosum)
Method in brief: as §2

[10] = tested on: Aspergillus fumigatus (ATCC 1022); test: Antifungal bioassay (MIC/MFC); assay type: cell-based; conditions: ATCC1022, A.f. (A. fumigatus)
Method in brief: as §2

[11] = tested on: Aspergillus versicolor (ATCC 11730); test: Antifungal bioassay (MIC/MFC); assay type: cell-based; conditions: ATCC11730, A.v. (A. versicolor)
Method in brief: as §2

[12] = tested on: Aspergillus niger (ATCC 6275); test: Antifungal bioassay (MIC/MFC); assay type: cell-based; conditions: ATCC6275, A.n. (A. niger)
Method in brief: as §2

COC(=O)c1[nH]c2ccccc2c1/C=C1\SC(=S)N(CC(=O)O)C1=O [Compound 11, (Z)-2-(5-((2-(methoxycarbonyl)-1H-indol-3-yl)methylene)-4-oxo-2-thioxothiazolidin-3-yl)acetic acid]
8 ± 0.6 µg/mL: MIC [1] | MIC ([6]; read-out: MIC) | MIC [8] | MIC (A. ochraceus)
11 µg/mL: MIC ([4]; Enterobacter cloacae, read-out: MIC) | MIC (P. aeruginosa; Pseudomonas aeruginosa, read-out: MIC)
11 ± 10 µg/mL: MIC [4] | MIC (P. aeruginosa)
8 µg/mL: MIC ([1]; Bacillus cereus, read-out: MIC) | MIC ([8]; Trichoderma viride, IAM5061, read-out: MIC) | MIC (A. ochraceus; Aspergillus ochraceus, read-out: MIC)
15 µg/mL: MIC ([3]; Salmonella enterica, read-out: MIC) | MIC ([5]; Escherichia coli, ATCC35210, read-out: MIC)
15 ± 9 µg/mL: MBC ([1]; Bacillus cereus) | MIC [3] | MIC [5] | MBC [6]
30 ± 10 µg/mL: MIC (M. flavus) | MIC ([2]; read-out: MIC) | MBC ([3]; Salmonella enterica) | MBC ([4]; Enterobacter cloacae) | MBC ([5]; Escherichia coli, ATCC35210) | MBC (P. aeruginosa; Pseudomonas aeruginosa) | MFC [7] | MFC (P. ochrochloron; P.o. (P. ochrochloron)) | MFC [9] | MFC [11] | MFC [12]
120 ± 40 µg/mL: MFC [10]
15 ± 3 µg/mL: MIC [7] | MFC ([8]; Trichoderma viride, IAM5061) | MFC (A. ochraceus; Aspergillus ochraceus) | MIC (P. ochrochloron; P.o. (P. ochrochloron; text: P. ochramensis), read-out: MIC) | MIC [9] | MIC [11] | MIC [12]
91%: viability at 48 h, 1 µM (in vitro) | viability at 48 h, 10 µM (in vitro)
60 ± 6 µg/mL: MBC (M. flavus) | MBC [2] | MIC [10]
292 to 294 °C: melting point
